Test system: WistarF/Han (WF) rats
Assay: Social interaction (SI) test of anxiety, combined i.c.v. treatment (Example 3)
Format: in vivo
Settings: isoleucyl thiazolidine alone 5pmol-500nmol, Fig. 7
Procedure: Animals. Male WistarF/Han (WF) rats (Central Animal Laboratory, Hannover Medical School, Hannover, Germany, see http://www.mh-hannover.de/institut/tierlabor/wf.htm for details), weighing 330-370g, were housed in a sound-proof, temperature controlled (24.0±0.5°C) room under specific pathogen free conditions with a 12/12h dark/light cycle (lights on at 07.00 with illumination level of 80 Lux). Food (Altromin lab chow pellets) and tap water were available ad libitum. Under ketamine/xylasine (100/5 mg/kg, i.p.) anesthesia, the rats were fixed in a Kopf stereotaxic frame and implanted with cannulae (Plastic One, Inc., Roanoke, VA, USA) above the lateral ventricle. […]
Animals were randomly divided into two sets of four experimental groups (n=5-6/group), which completed different consecutive SI test of anxiety. […] The time spent in active social interaction (SI-time), 1h and 12h food-intake were measured. […]
Social interaction (SI) test. […] Behavior was monitored using a video camera placed above the field inside the testing/isolation box. The SI behavior of both rats was recorded on-line from a monitor placed outside on top of the box. The following parameters were scored by an observer (HPN) unaware of the substrain of rats: duration of time spent in sniffing, following, crawling under and over other rats, but not passive body contact (resting, sleeping). […]

SMILES: CCC(C)C(N)C(=O)N1CCSC1 (stereo not shown) [isoleucyl thiazolidine]
- time spent in active social interaction (SI-time): "bell-shaped" dose-dependent anxiolytic-like effects
